Experimental data: US8796228B2, “Method for neutralizing fungi using sophorolipids and antifungal sophorolipids for use therein” (Synthezyme, LLC, priority 2004, dated 2014)

How the values were obtained:
Assay in all cases: Antifungal assay, growth inhibition by OD in 96 well plates
Type in all cases: cell-based
Conditions in all cases: 5 mg/ml sophorolipid solution, 48 hours at 30° C., OD at 400 nm vs control wells
Candida albicans = system: Candida albicans
Procedure: (§1) Sophorolipid solution was prepared by adding 15 mg of compound in 1 ml sucrose solution, pH 8.5.
(§2) All assay were carried out in 96 well plates using Yeast extract-Maltose medium. The logarithmic growing cultures were incubated with 5 mg/ml of sophorolipids for 48 hours at 30° C. Following incubation, the wells were measured for Optical Density (OD) at 400 nm using microtitre plate readers. Percent (%) inhibition of growth was calculated corresponding to the OD in control wells containing no sophorolipid.

Candida tropicalis = system: Candida tropicalis
Procedure: as §1, §2

Candida antartica = system: Candida antartica
Procedure: as §1, §2

Compound	Inhibition % (Candida albicans) [%]	Inhibition % (Candida tropicalis) [%]	Inhibition % (Candida antartica) [%]
CCCCCCOC(=O)CCCCCCC/C=C\CCCCCCC(C)O[C@@H]1O[C@H](CO)[C@@H](O)[C@H](O)[C@H]1O[C@@H]1O[C@H](CO)[C@@H](O)[C@H](O)[C@H]1O (relative stereo) [Hexyl SL, Hexyl 17-L-[(2′-O-β-D-glucopyranosyl-β-D-glucopyranosyl)-oxy]-cis-9-octadecenoate]	38	100	100
CCOC(=O)CCCCCCC/C=C\CCCCCCC(C)O[C@@H]1O[C@H](CO)[C@@H](O)[C@H](O)[C@H]1O[C@@H]1O[C@H](CO)[C@@H](O)[C@H](O)[C@H]1O (relative stereo) [SL - Ethyl Ester, Ethyl 17-L-([2′-O-β-D-glucopyranosyl-β-D-glucopyranosyl]-oxy)-cis-9-octadecenoate]	20	35	28
COC(=O)CCCCCCC/C=C\CCCCCC[C@H](C)O[C@@H]1O[C@H](CO)[C@@H](O)[C@H](O)[C@H]1O[C@@H]1O[C@H](CO)[C@@H](O)[C@H](O)[C@H]1O (relative stereo) [SL - Methyl Ester, Methyl 17-L-([2′-O-β-D-glucopyranosyl-β-D-glucopyranosyl]-oxy)-cis-9-octadecenoate]	100	100	71
CCOC(=O)CCCCCCC/C=C\CCCCCCC(C)O[C@@H]1O[C@H](COC(C)=O)[C@@H](O)[C@H](O)[C@H]1O[C@@H]1O[C@H](COC(C)=O)[C@@H](O)[C@H](O)[C@H]1O (relative stereo) [SL Ethyl Ester Diacetate, Ethyl 17-L-([2′-O-β-D-glucopyranosyl-β-D-glucopyranosyl]-oxy)-cis-9-octadecenoate 6′,6″-diacetate]	100	100	100
CCOC(=O)CCCCCCC/C=C\CCCCCC[C@H](C)O[C@@H]1O[C@H](CO)[C@@H](O)[C@H](O)[C@H]1O[C@@H]1O[C@H](COC(C)=O)[C@@H](O)[C@H](O)[C@H]1O (relative stereo) [SL Ethyl Ester Monoacetate, Ethyl 17-L-[(2′-O-β-D-glucopyranosyl-β-D-glucopyranosyl)-oxy]-cis-9-octadecenoate-6″-acetate]	100	35	42
